One assay relates to tetanus toxin. The arrangement: species or system mice. Particulars: mouse, in vivo.
For the next assay, the system named is TT. Details: species or system mice. Conditions: mouse, in vivo.
In the next assay the test system is splenocytes. Type of assay: cell-based, mice.
The subject of the next assay is Spleen cells. Put plainly: Cytokine assay. Type of assay: cell-based, mice.
Where [1] appears, read: Experiment 1, following restimulation.

1 substance from US20140294894A1 (priority 2007, published 2014) can be followed below.

Ends that are not written are not given here.

FCIGRL [AT1002]: in the assay on tetanus toxin, the “protective antibody levels compared to immunization with TT alone” value is recorded as “increased protective antibody levels”. In the assay on TT, the “anti-tetanus IgG subclass titers (IgG1, IgG2a): shift toward a Th1 response” value is on record as “No indication of a shift toward a Th1 response”; the “anti-tetanus response (tetanus IgG titer) compared to tetanus toxoid alone” value is reported as “significantly enhances the anti-tetanus response in a dose-dependent manner”; the “anti-tetanus response (tetanus IgG titer), effect of higher dose” value is recorded as “does not increaser the anti-tetanus response”. Also, the “proliferation of spleen cells on restimulation with immunizing antigen (Stimulation Index)” value in the assay with splenocytes is reported as “induces the strongest cell proliferation response”. Further, in the assay with Spleen cells (setting [1]), the “IL-5 production compared to groups immunized with toxoid (TT) alone” value is “does not increase production” and the “IL-10 production compared to groups immunized with toxoid (TT) alone” value is listed as “does not increase production”. For the same substance, the “IL-6 production by spleen cells compared to groups immunized with toxoid (TT) alone” value in the assay on Spleen cells (Experiment 1, restimulation with TT 0-100 μg/ml, FIG. 8A) is “does increase IL-6 production”. The “IFN-γ production by spleen cells compared to groups immunized with toxoid (TT) alone” value in the assay with Spleen cells (Experiment 1, restimulation with TT 0-100 μg/ml, FIG. 8B) is on record as “does not increase IFN-γ production”. Also, in the assay with Spleen cells (Experiment 2, restimulation with TT 0-100 μg/ml, FIG. 14A), the “IL-6 production by spleen cells compared to groups immunized with toxoid (TT) alone” value is “does increase IL-6 production”.
